Experimental data as given in patent publication US10610535B2 (The Regents of the University of California, priority 2005, dated 2020).

What was measured:
[1] = test system: spinal cords of mice with EAE; assay: Spinal cord histopathology and immunohistochemistry in EAE (Example 5); assay type: in vivo; settings: acute phase of EAE
From the text: Mice were deeply anesthetized with isoflurane and perfused transcardially with ice-cold 0.9% saline, followed by 10% formalin. Spinal cord columns were removed and postfixed overnight in 10% formalin and cryoprotected with 20% sucrose solution, in PBS. Spinal cords were removed from the column, cut in three parts (cervical, thoracic, and lumbar), and embedded in gelatin/sucrose mix. Spinal cord regions in gelatin were further postfixed and stored in 20% sucrose. Free-floating sections (25 μm thick) were cut coronally with a sliding microtome and collected serially in PBS. […]
To quantify immunostaining results, sections from spinal cord levels T1-T5 were examined, six from each mouse, with n=3 mice per treatment group, for a total of 18 sections per treatment group. […] All images were converted to grayscale and then analyzed by density measurement with ImageJ version 1.29 (the Windows version of NIH Image), downloaded from rsb.info.nih.gov/ij. A fixed threshold range of 0-160 was chosen to highlight the staining signals in normal spinal cord sections, and the total area within this range was measured, averaged, and compared.
Increase in total number of infiltrating cells after induction of EAE was measured by density measurements of DAPI+nuclei in the whole white matter. Neuronal cells were quantified by counting the NeuN+/β3-tubulin+/DAPI+ cells per square millimeter in the whole gray matter. […]

[2] = test system: post-partum patient with relapsing remitting multiple sclerosis; assay: Case of post-partum relapsing remitting MS patient; assay type: in vivo, human
Procedure: A patient was diagnosed as having relapsing remitting multiple sclerosis. Following the delivery of their first child (now […]), the patient was treated only with Copaxone and relapsed at 6 weeks. Following the delivery of their second child (now […]), the patient was again treated with Copaxone alone and again relapsed, this time at 4.5 months. Following a subsequent pregnancy, the patient was treated with 8 mg estriol/day in an attempt to prevent their post partum relapses.
Following the birth of the patient's third child (now 6 months), the patient resumed treatment with Copaxone as before. However, on day 10 post-partum they began taking estriol 8 mg/daily in an oral dosage form. […] Since monthly brain MRIs with gadolinium to detect enhancing MS lesions are more sensitive for inflammatory disease activity than relapses, the patient underwent serial monthly MRIs at post partum months 4, 5, and 6.
The patient doubled the progesterone minipill for 2 weeks to stabilize the endometrium. Otherwise no adverse events have been reported.

C57BL/6 mice with EAE [3] = assay: Rotarod testing of motor performance during EAE; assay type: in vivo
Procedure: Motor behavior was tested up to two times per week for each mouse using a rotarod apparatus (Med Associates mc, St. Albans, Vt.). Briefly, animals were placed on a rotating horizontal cylinder for a maximum of 200 seconds. The amount of time the mouse remained walking on the cylinder, without falling, was recorded. Each mouse was tested on a speed of 3-30 rpm and given three trials for any given day. The three trials were averaged to report a single value for an individual mouse, and then averages were calculated for all animals within a given treatment group. The first two trial days, prior to immunization (day 0), served as practice trials.
EAE clinical disease severity was compared between treatment groups using the Friedman test; histopathological changes were assessed using 1×4 ANOVAs; uterine weights, proliferative responses and cytokine levels were compared between treatment groups using Student t-test, and time on rotorod was compared between treatment groups using ANOVA.

[4] = test system: PLP 139-151 stimulated splenocytes; assay: Splenic immune responses (proliferation, cytokines) in SJL mice with EAE; assay type: in vivo; settings: day 52 after disease induction, vs vehicle
Procedure: (§1) Spleens were harvested either after deep anesthesia prior to perfusion or after euthanasia. Splenocytes were stimulated with the indicated autoantigens at […], and proliferation assessed using standard H3 incorporation assays, as described. Supernatants were collected after 48 and 72 hours, and levels of TNF-i, IFN-γ, 11,6, and 1 L5 were determined by cytometric bead array (BD Biosciences), as described. EAE clinical disease severity was compared between treatment groups using the Friedman test; histopathological changes were assessed using 1×4 ANOVAs; uterine weights, proliferative responses and cytokine levels were compared between treatment groups using Student t-test, and time on rotorod was compared between treatment groups using ANOVA.

[5] = test system: spinal cords of mice with EAE; assay: Spinal cord histopathology and immunohistochemistry in EAE (Example 6); assay type: in vivo
From the text: Mice were deeply anesthetized with isoflurane and perfused transcardially with ice-cold 0.9% saline, followed by 10% formalin. Spinal cord columns were removed and post-fixed overnight in 10% formalin and cryoprotected with 20% sucrose solution in PBS. Spinal cords were removed from the column and cut in 3 parts (cervical, thoracic and lumbar) and embedded in gelatin/sucrose mix. Spinal cord regions in gelatin were further postfixed and stored in 20% sucrose. Free-floating sections (25 μm thick) were cut coronally with a sliding microtome and collected serially in PBS.
Serial sections were mounted on slides and stained with Hematoxylin & eosin (H&E) or Nissl. Consecutive sections were also examined by immunohistochemistry. Briefly, 25 μm free-floating sections were permeabilized in 0.3% Triton X-100 in PBS and blocked with 10% normal goat serum. White matter immunostaining was enhanced by treating sections with 95% ethanol/5% acetic acid for 15 minutes prior to permeabilization and blocking. To detect specific cell types and structures, sections were pre-incubated with primary antibodies in PBS solution containing 2% NGS for 2 hours at room temperature, then overnight at […]. The following primary antibodies were used: anti-133 tubulin and anti-neurofilament-NF200 (monoclonal, Chemicon; polyclonal Sigma Biochemical), anti-neuronal specific nuclear protein (NeuN), anti-CD4S (Chemicon), and anti-MW (Chemicon). The second antibody step was performed by labeling with antibodies conjugated to TRITC, FITC and Cy5 (Vector Labs and Chemicon). IgG-control experiments were performed for all primary antibodies, and no staining was observed under these conditions. To assess the number of cells, a nuclear stain 4′,6-Diamidino-2-phenylindole, DAPI (2 ng/ml; Molecular Probes) was added for 15 minutes prior to final washes after secondary antibody addition. The sections were mounted on slides, dried and coverslipped in fluoromount G (Fisher Scientific).
To quantify immunostaining results, sections from spinal cord levels T1-T5 were examined, six from each mouse, with n=3 mice per treatment group, for a total of 18 sections per treatment group. Images were captured under microscope (4×, 10× or 40×) using the DP70 Image software and a DP70 camera (both from Olympus). Identical tight intensity and exposure times were applied to all photographs from each experimental set. Images from the same areas of spinal cord were compared (TI-IS) and were acquired separately from delineated whole gray and white mailer regions. The middle region of the ventral horn was the focus for gray matter analysis, while the area lateral to the ventral horn was the focus for white matter analysis. Six gray matter and six white matter pictures were collected from the two sides of TI-IS sections (100 jim apart) from three animals in each treatment group. All images were converted to grayscale and then analyzed by density measurement with ImageJ vi 0.29 (the Windows version of NIH Image), downloaded from rsb.info.nih.gov/ij. A fixed threshold range of 0 to 160 was chosen to highlight the staining signals in normal spinal cord sections, and the total area within this range was measured, averaged, and compared.
Increase in total number of infiltrating cells after induction of EAE was measured by density measurements of DAPI nuclei in the whole white matter. Neuronal cells were quantified by counting the NeuN^+/β3-tubulin^+/DAPI^+ cells per mm2 in the whole gray matter. Both white and gray matter assessments occurred in the TI-IS spinal cord sections. Laser scanning confocal microscopic scans at 40× were performed on Mac 3^+/β3-tubulin^+ immunostained spinal cord sections corresponding to levels 11-15 ventral horn. […]

[6] = test system: uterus (positive control tissue) of ovariectomized C57BL/6 mice; assay: Uterine weights to assess dosing (Example 6); assay type: in vivo
Procedure: Uterine weight was used as a positive control to assess dosing of estrogen agonists. Daily subcutaneous injections of vehicle, estradiol, PPT, or DPN, as well as a combination of ITT with DPN, were administered for ten days at indicated doses to ovariectomized mice. Following euthanasia, the uterus was extracted, then fat, connective tissue, and excess fluid removed in order to obtain the uterine weight, as described. EAE clinical disease severity was compared between treatment groups using the Friedman test; histopathological changes were assessed using 1×4 ANOVAs; uterine weights, proliferative responses and cytokine levels were compared between treatment groups using Student t-test, and time on rotorod was compared between treatment groups using ANOVA.

[7] = test system: MOG 35-55 stimulated splenocytes; assay: Autoantigen specific cytokine production by splenocytes in C57BL/6 EAE (Example 6); assay type: in vivo, mice; settings: vs vehicle
Procedure: as §1

C57BL/6 mice with EAE [8] = assay: Clinical severity of MOG 35-55 induced active EAE (Example 6); assay type: in vivo; settings: vs vehicle
SJL mice with EAE = assay: PLP 139-151 induced active EAE in SJL mice, relapses; assay type: in vivo
[9] = day 19 and day 40, vs normal mice
[10] = early (day 19) and later (day 40) stages of EAE

With `CCCc1c(-c2ccc(O)cc2)nn(-c2ccc(O)cc2)c1-c1ccc(O)cc1` [PPT, propyl pyrazole triol] the “Decrease of Mac 3+ cells in gray matter compared with vehicle-treated EAE mice” value [1] was roughly 65%.
For “glatiramer acetate copolymer-1 [Copaxone]”, the “Time to post-partum relapse” value ([2]; Copaxone alone, after delivery of second child) was 4.5 months and the “Time to post-partum relapse” value ([2]; Copaxone only, after delivery of first child) was 6 weeks.
In the case of `C[C@]12CC[C@@H]3c4ccc(O)cc4CC[C@H]3[C@@H]1CC[C@@H]2O` [estradiol, 17β-estradiol], the “Decrease of Mac 3+ cells in gray matter compared with vehicle-treated EAE mice” value [1] is reported as roughly 65%.
With `N#CC(Cc1ccc(O)cc1)c1ccc(O)cc1` (centres unmarked) [DPN, Diarylpropionitrile] the “Mean time on rotarod (motor function)” value (C57BL/6 mice with EAE [3]; ERβ KO mice with EAE, later phase of disease) was “no improvement was observed”, the “Mean time on rotarod (motor function)” value (C57BL/6 mice with EAE [3]; ovariectomized wild type C57BL/6 with EAE, after day 30) was “significant recovery of motor function” and the “Cytokine (TNFα, IFNγ) production during the PLP 139-151 specific response” value [4] was “No significant differences”. For the same molecule, the “Proliferation during the PLP 139-151 specific response” value [4] was “No significant differences”, the “White matter cell density, myelin density, axonal numbers and NeuN+ cells” value ([5]; ERβ knock out mice with EAE, day 38-40) was “does not prevent white and gray matter pathology” and the “MBP immunoreactivity in dorsal column (myelin density)” value [5, 9] was “no significant decreases”. The “Neurofilament stained axon numbers in white matter” value [5, 9] was “no significant reduction in axon numbers”, the “NeuN+ cell numbers in gray matter” value ([5]; early (day 19) and later (day 40) time points, vs healthy controls) was “fewer, but not significantly different from those in healthy controls” and the “CD45 staining in white matter” value ([5]; early and later time points, vs vehicle treated EAE) was “did not have reduced CD45 staining”. For the same molecule, the “Inflammation, white matter cell density (DAPI+ cells) of thoracic cord” value ([5]; early stage of EAE (day 19), vs vehicle treated EAE) was “not significantly different from those in vehicle treated”, the “Inflammation, white matter cell density (DAPI+ cells) of thoracic cord” value ([5]; later time point (day 40), vs vehicle) was “no different from that in vehicle treated” and the “PPT 3.3 mg/kg/day mediated increase in uterine weight” value ([6]; DPN 8 mg/kg/day in combination with PPT, 10 days) was “antagonized”. For the same molecule, the Uterine weight ([6]; DPN alone 8 mg/kg/day s.c. for 10 days, ovariectomized C57BL/6) was “no effect on uterine weight”, the “Anti-inflammatory cytokine IL5” value [7, 10] was “not statistically different from vehicle treatment” and the “Levels of proinflammatory cytokines (TNFα, IFNγ, and IL6)” value [7, 10] was “not statistically different from vehicle treatment”. The IL10 production [7] was “No differences”, the “Clinical scores (EAE 0-5 scale)” value (C57BL/6 mice with EAE [8]; DPN 8 mg/kg/day s.c., ovariectomized C57BL/6, early in disease (up to day 20 after induction)) was “not significantly different” and the “Clinical scores (EAE 0-5 scale)” value (C57BL/6 mice with EAE [8]; DPN 8 mg/kg/day s.c., ovariectomized C57BL/6, later during EAE (following day 30 after induction)) was “significantly improved”. For the same molecule, the “Clinical scores (EAE 0-5 scale)” value (C57BL/6 mice with EAE [8]; DPN, ovariectomized ERβ KO C57BL/6 mice) was “no different”, the “Relapses (mice with relapse / mice)” value (SJL mice with EAE; DPN treated SJL mice, relapses between days 36 and 52, vehicle 10/13) was 5/13 and the “Relapses (percent of mice)” value (SJL mice with EAE; DPN treated SJL mice, relapses between days 36 and 52, vehicle 77%) was 33%. The “Incidence, day of onset, peak clinical scores” value (SJL mice with EAE; DPN vs vehicle, SJL mice) was “no difference”.
